Test results published in the CheMixHub drug solubility set.

Experiment: xn = mol fraction of the nth substance listed, in the solute-free solvent

NC(N)=C([N+](=O)[O-])[N+](=O)[O-] + CS(C)=O + CC(=O)CC(C)C
solubility (g/100 g solution)
Conditions | 293.15 K | 298.15 K | 303.15 K | 308.15 K | 313.15 K | 318.15 K | 323.15 K | 328.15 K | 333.15 K
x2 = 0.1634 | 1.9 | 1.97 | 2.1 | 2.25 | 2.41 | 2.57 | 2.74 | 2.92 | 3.13
x2 = 0.3054 | 5.11 | 5.4 | 5.7 | 5.99 | 6.28 | 6.6 | 6.95 | 7.29 | 7.68
x2 = 0.4297 | 9.16 | 9.64 | 10 | 10.4 | 10.8 | 11.2 | 11.7 | 12.2 | 12.7
x2 = 0.5397 | 13.1 | 13.7 | 14.2 | 14.6 | 15.1 | 15.6 | 16.1 | 16.7 | 17.2
x2 = 0.6375 | 17 | 17.6 | 18.1 | 18.6 | 19 | 19.6 | 20.1 | 20.7 | 21.3
x2 = 0.7251 | 20.2 | 21 | 21.5 | 21.9 | 22.5 | 23.1 | 23.7 | 24.3 | 25
x2 = 0.804 | 23.2 | 23.8 | 24.3 | 24.8 | 25.3 | 25.9 | 26.6 | 27.2 | 27.8
x2 = 0.8755 | 25.6 | 26.3 | 26.8 | 27.2 | 27.8 | 28.4 | 28.9 | 29.6 | 30.2
x2 = 0.9406 | 27.4 | 28.5 | 29 | 29.5 | 30.1 | 30.6 | 31.2 | 31.8 | 32.4

O=c1cc(CBr)c2ccccc2[nH]1 + CCCO + O
solubility (g/100 g solution)
Conditions | 278.15 K | 283.15 K | 288.15 K | 293.15 K | 298.15 K | 303.15 K | 308.15 K | 313.15 K | 318.15 K
x2 = 0.03225 | 0.0181 | 0.0232 | 0.0292 | 0.0365 | 0.0451 | 0.0563 | 0.0686 | 0.0826 | 0.0993
x2 = 0.06974 | 0.0316 | 0.038 | 0.0464 | 0.0561 | 0.0674 | 0.0807 | 0.0957 | 0.112 | 0.131
x2 = 0.1139 | 0.0465 | 0.0552 | 0.0643 | 0.0756 | 0.0895 | 0.104 | 0.119 | 0.138 | 0.157
x2 = 0.1666 | 0.0629 | 0.0722 | 0.084 | 0.096 | 0.11 | 0.125 | 0.142 | 0.159 | 0.18
x2 = 0.2307 | 0.0788 | 0.0907 | 0.102 | 0.115 | 0.131 | 0.146 | 0.164 | 0.181 | 0.202
x2 = 0.3103 | 0.0908 | 0.103 | 0.115 | 0.13 | 0.144 | 0.161 | 0.18 | 0.198 | 0.218
x2 = 0.4117 | 0.0987 | 0.11 | 0.124 | 0.14 | 0.155 | 0.172 | 0.189 | 0.207 | 0.229
x2 = 0.5454 | 0.103 | 0.114 | 0.128 | 0.141 | 0.156 | 0.173 | 0.189 | 0.209 | 0.228
x2 = 0.7297 | 0.102 | 0.112 | 0.124 | 0.138 | 0.151 | 0.166 | 0.183 | 0.2 | 0.217
